Measured values reported in patent publication US20050032042A1, “Anti-retroviral analysis by mass spectrometry” (priority 2003, published 2005).

Assays:
[1] = in vivo; cited from earlier work
[2] = in vivo; cited from earlier work; remark: listed apart in the source
[3] = cited from earlier work
[4] = for Free Plasma (f) vs Total Plasma (tp) regression equation / r, free plasma vs total plasma / Saliva (s) vs Total Plasma (tp) regression equation / r, saliva vs total plasma: human; for Saliva (s) vs Total Plasma (tp) regression equation / r, saliva vs total plasma / correlation of free drug or saliva drug concentration with total drug concentration (in words): in vivo
Procedure: Protein binding and free drug measurement: An Institutional Review Board (IRB) approved protocol was developed for the assessment of free drug concentrations by measuring both the saliva and free drug in plasma utilizing the tandem mass spectrometric methods for plasma or serum measurement. […] A bigger sample is injected for the free drug measurement (50 uL vs 10 uL for plasma/serum.). Free drug concentrations can be measured by using either equilibrium dialysis or, more commonly, devices with molecular cutoff filters such as the Amicon Centrifree micropartition system (Millipore Corporation, Bedford, Mass.) or the Worthington Diagnostics “ultrafree” system (Worthington, Jacksonville, Fla.). Plasma ultrafiltrate is obtained by centrifuging 1 mL of plasma in Amicon system and then deproteinising as described for serum/plasma previously (15, 40).

Row | Structure (SMILES) | Trough Concentration [1] | C max. [2] | C min. [2] | t ½ [2] | Protein Bindings % [3] | Free Plasma (f) vs Total Plasma (tp) regression equation [4] | r, free plasma vs total plasma [4] | Saliva (s) vs Total Plasma (tp) regression equation [4] | r, saliva vs total plasma [4] | correlation of free drug or saliva drug concentration with total drug concentration (in words) [4] | Vd [2]
1 | CC(C)Nc1cccnc1N1CCN(C(=O)c2cc3cc(NS(C)(=O)=O)ccc3[nH]2)CC1 [Delavirdine] | 3000 to 8000 ng/mL | 16000 ng/mL | 3000 ng/mL | 6 h | 99% |  |  |  |  |  | 
2 | O=c1[nH]cnc2c1ncn2[C@H]1CC[C@@H](CO)O1 [Didanosine] | 100 to 300 ng/mL | 24000 ng/mL |  |  |  | f = 0.19tp + 47 | 0.749 | s = 0.29tp + 20 | 0.912 | good correlations | 0.8 L/kg
3 | CC(C)(C)NC(=O)[C@@H]1CN(Cc2cccnc2)CCN1C[C@@H](O)C[C@@H](Cc1ccccc1)C(=O)N[C@H]1c2ccccc2C[C@H]1O [Indinavir] |  | 10000 ng/mL |  |  |  |  |  |  |  |  | 
4 | Nc1ccn([C@@H]2CS[C@H](CO)O2)c(=O)n1 [Lamivudine] | 100 to 1000 ng/mL | 1800 ng/mL |  |  |  |  |  |  |  |  | 
5 | Cc1cccc(C)c1OCC(=O)N[C@@H](Cc1ccccc1)[C@@H](O)C[C@H](Cc1ccccc1)NC(=O)[C@H](C(C)C)N1CCCNC1=O [Lopinavir] |  |  |  |  |  |  |  | s = 0.05tp + 194 | 0.777 | good correlations | 
6 | Cc1c(O)cccc1C(=O)N[C@@H](CSc1ccccc1)[C@H](O)CN1C[C@H]2CCCC[C@H]2C[C@H]1C(=O)NC(C)(C)C [Nelfinavir] | 1000 ng/mL | 4000 ng/mL | 1000 ng/mL | 5 h | 98% |  |  | s = 0.0026tp + 78 | 0.047 | not | 4 L/kg
7 | Cc1ccnc2c1NC(=O)c1cccnc1N2C1CC1 [Nevirapine] | 3000 ng/mL | 20000 ng/mL | 3000 ng/mL | 30 h | 60% | f = 0.36tp + 483 | 0.909 |  | 0.901 | good correlations | 1.2 L/kg
8 | CC(C)c1nc(CN(C)C(=O)N[C@H](C(=O)N[C@@H](Cc2ccccc2)C[C@H](O)[C@H](Cc2ccccc2)NC(=O)OCc2cncs2)C(C)C)cs1 [Ritonavir] | 1000 ng/mL | 14000 ng/mL | 1000 ng/mL | 4 h |  |  |  | s = 0.043tp + 109 | 0.991 | good correlations | 0.4 L/kg
9 | CC(C)(C)NC(=O)[C@@H]1C[C@@H]2CCCC[C@@H]2CN1C[C@@H](O)[C@H](Cc1ccccc1)NC(=O)[C@H](CC(N)=O)NC(=O)c1ccc2ccccc2n1 [Saquinavir] | 15 to 40 ng/mL | 500 ng/mL |  | 12 h |  |  |  |  |  |  | 10 L/kg
10 | Cc1cn([C@H]2C=C[C@@H](CO)O2)c(=O)[nH]c1=O [Stavudine] | 20 ng/mL | 2000 ng/mL | 20 ng/mL | 1.1 h |  | f = 0.66tp − 4 | 0.924 |  | 0.909 | good correlations | 1.0 L/kg
11 | Nc1ccn([C@H]2CC[C@@H](CO)O2)c(=O)n1 [Zalcitabine] | Undetectable | <25 ng/mL | undetectable | 2.0 h | <5% |  |  |  |  |  | 0.5 L/kg
12 | Cc1cn([C@H]2C[C@H](N=[N+]=[N-])[C@@H](CO)O2)c(=O)[nH]c1=O [Zidovudine] | <20 ng/mL | 1800 ng/mL | <20 ng/mL | 1.2 h | <5% | f = 0.14tp + 27 | 0.907 |  |  | good correlations | 1.4 L/kg
